Values after ≈ are worked out from the molar mass of the structure shown.
Tests used:
[1] = target: T1, Pyruvate kinase PKM (Homo sapiens, UniProt P14618)
Description: (§1) Activation of human PKM2 assessed as ATP product formation after 1 hr by luminescent pyruvate kinase-luciferase coupled assay

[2] = Aqueous solubility in DMSO at pH 7.4 by quantitative nitrogen detection assay; type: physicochemical; settings: aqueous solution with DMSO
[3] = target: T1, Pyruvate kinase PKM; remark: listed apart in the source
Description: as §1

T1 sequence (P14618 whole entry): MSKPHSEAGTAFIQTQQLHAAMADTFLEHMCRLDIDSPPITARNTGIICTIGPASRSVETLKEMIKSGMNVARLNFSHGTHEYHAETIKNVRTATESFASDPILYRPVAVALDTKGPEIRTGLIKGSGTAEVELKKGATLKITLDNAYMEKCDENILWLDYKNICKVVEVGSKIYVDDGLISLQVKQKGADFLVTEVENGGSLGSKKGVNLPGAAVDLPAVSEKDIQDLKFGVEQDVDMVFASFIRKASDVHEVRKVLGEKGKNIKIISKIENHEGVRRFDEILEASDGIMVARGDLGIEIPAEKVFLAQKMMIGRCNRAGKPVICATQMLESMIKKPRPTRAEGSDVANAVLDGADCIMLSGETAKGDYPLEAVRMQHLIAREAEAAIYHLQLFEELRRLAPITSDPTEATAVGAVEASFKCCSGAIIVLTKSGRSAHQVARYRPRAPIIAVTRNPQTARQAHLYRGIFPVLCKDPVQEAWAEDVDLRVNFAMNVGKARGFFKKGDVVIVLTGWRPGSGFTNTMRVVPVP

`Cn1c2cc([S+](C)[O-])sc2c2cnn(Cc3cccc(O)c3)c(=O)c21` (stereo unspecified) gave an AC50 [1] of 130 nM and a solubility kinetic [2] of 16.9 µg/mL (≈ 45.3 µM).

For `CCCCCn1ncc2c3sc(C)cc3n(C)c2c1=O`, the AC50 [1] was over 35000 nM.

`Cn1c2ccsc2c2ncn(Cc3ccccc3F)c(=O)c21` gave an AC50 [1] of over 35000 nM.

In the case of `Cc1cc2c(s1)c1cnn(-c3ccccc3)c(=O)c1n2C`, the AC50 [3] is reported as “Not Active”.

For `Cc1cc2c(s1)c1cnn(Cc3ccccc3F)c(=O)c1n2C`, the solubility kinetic [2] was under 0.2 µg/mL.

`CC(O)c1cc2c(s1)c1cnn(Cc3ccccc3F)c(=O)c1n2C` (stereo unspecified) showed an AC50 [1] of 136 nM.

With `Cc1cc2c(s1)c1cnn(Cc3ccc(C(F)(F)F)cc3F)c(=O)c1n2C` the AC50 [1] was over 15000 nM.

With `Cc1cc2[nH]c3c(=O)n(Cc4ccccc4F)ncc3c2s1` the AC50 [3] was “Not Active”.

`CCn1c2cc(C)sc2c2cnn(Cc3ccccc3F)c(=O)c21` gave an AC50 [1] of 5900 nM.

With `Cc1cc2c(s1)c1cnn(Cc3ccccc3F)c(=O)c1n2C(C)C` the AC50 [3] was “Not Active”.

For `Cc1cc2c(s1)c1c(C)nn(Cc3ccccc3F)c(=O)c1n2C`, the AC50 [1] was over 30000 nM.

Molecule `COc1ccc(Cn2ncc3c4sc(C)cc4n(C)c3c2=O)cc1F` has an AC50 [1] of 225 nM.

For `COc1cccc(Cn2ncc3c4sc([S+](C)[O-])cc4n(C)c3c2=O)c1` (stereo unspecified), the AC50 [1] was 73 nM and the solubility kinetic [2] was 37.4 µg/mL (≈ 96.5 µM).

With `Cn1c2cc([S+](C)[O-])sc2c2cnn(Cc3cccc(N)c3)c(=O)c21` (stereo unspecified) the solubility kinetic [2] was 29.6 µg/mL (≈ 79.5 µM).

`Cn1c2cc(B(O)O)sc2c2cnn(Cc3ccccc3F)c(=O)c21` gave an AC50 [1] of over 10000 nM.

`Cc1ccc(Cn2ncc3c4sc(C)cc4n(C)c3c2=O)c(F)c1` gave an AC50 [1] of 108 nM.

For `Cn1c2cc(S(C)(=O)=O)sc2c2cnn(Cc3ccccc3F)c(=O)c21`, the AC50 [3] was “Not Active”.

For `CC(=O)Nc1cc2c(s1)c1cnn(Cc3ccccc3F)c(=O)c1n2C`, the AC50 [1] was over 25000 nM.

In the case of `Cn1c2cc([S+](C)[O-])sc2c2cnn(Cc3ccccc3F)c(=O)c21` (stereo unspecified), the solubility kinetic [2] is reported as 4.4 µg/mL (≈ 11.7 µM).

— ChEMBL document CHEMBL1155492, “Evaluation of thieno[3,2-b]pyrrole[3,2-d]pyridazinones as activators of the tumor cell specific M2 isoform of pyruvate kinase” (Bioorg Med Chem Lett, 2010)
